Results on eight compounds are retold here after patent US20250361234A1 (NICO THERAPEUTICS, INC., priority 2022, published 2025).

The term IC50 denotes the point on the concentration scale where inhibition reaches its midpoint. A lower IC50 goes with inhibition by little substance.

The target in this test is T1, full-length SARM1 (FL-SARM1) (Homo sapiens, UniProt Q6SZW1).
T1 sequence (Q6SZW1 28-724): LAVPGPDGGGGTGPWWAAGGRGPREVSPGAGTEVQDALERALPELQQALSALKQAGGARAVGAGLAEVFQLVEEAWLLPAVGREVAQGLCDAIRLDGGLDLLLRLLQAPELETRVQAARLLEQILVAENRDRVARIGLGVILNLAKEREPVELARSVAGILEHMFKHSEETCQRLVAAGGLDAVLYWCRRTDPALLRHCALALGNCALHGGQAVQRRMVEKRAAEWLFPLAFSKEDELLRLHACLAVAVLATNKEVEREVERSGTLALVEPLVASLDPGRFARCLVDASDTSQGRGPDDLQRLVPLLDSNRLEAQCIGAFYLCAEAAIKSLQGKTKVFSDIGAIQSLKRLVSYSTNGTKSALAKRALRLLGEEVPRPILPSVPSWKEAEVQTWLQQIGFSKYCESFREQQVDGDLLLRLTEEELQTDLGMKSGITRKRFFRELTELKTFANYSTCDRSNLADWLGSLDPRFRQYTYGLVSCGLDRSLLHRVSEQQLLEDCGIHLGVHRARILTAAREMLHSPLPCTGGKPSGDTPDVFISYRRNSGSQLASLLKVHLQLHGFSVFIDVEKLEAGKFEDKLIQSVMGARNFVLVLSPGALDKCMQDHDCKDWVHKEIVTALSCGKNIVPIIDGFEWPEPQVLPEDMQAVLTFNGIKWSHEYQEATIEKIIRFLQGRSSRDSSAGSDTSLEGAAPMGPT
In words: FL-SARM1 cellular lysate assay (NAD/NADH-Glo readout of remaining NAD+). The following applies: SARM1 cellular lysate from transfected HEK293T cells, NAD+ and NMN, 11 point curve.

Experimental: Preparation of full-length SARM1 (FL-SARM1) lysate: HEK293T cells (ATCC: CRL-3216) were grown on 150 mm TC-treated dishes to 80-90% confluency in complete DMEM (Thermo Fisher: 11965175) supplemented with 10% HI-FBS (VWR: 10802-772), 1× Pen/Strep (Thermo Fisher: 15140122), 1× NEAA (Thermo Fisher: 1140050), 1× glutamax (Thermo Fisher: 35050061), and 1 mM sodium pyruvate (Thermo Fisher: 11360070)) at 37° C. and 5% CO2. One hour prior to transfection, the media was replaced with fresh, 37° C. complete DMEM (20 mL per one 150 mm dish) supplemented with additional 10 mM glucose (Alfa Aesar AAJ60067EQE). Per one 150 mm dish, 30 μg FL-SARM1 (SEQ. ID. 1; cloned in-house) plasmid was dissolved in 1 mL DMEM at ambient temperature and were mixed by inverting the tube 8-10 times. 90 μL of GenJet™ in vitro DNA transfection reagent (Ver2) was dissolved in 1 mL DMEM at ambient temperature and were mixed by inverting the tube 8-10 times. The plasmid and transfection agent solutions were combined, mixed by 8-10 inversions and incubated for 10 minutes at ambient temperature. 2 mL of this transfection mixture was added to each dish containing HEK293T cells as prepared above followed by a gentle mixing of 4-5 horizontal rotations. The dishes were incubated at 37° C. and 5% CO2 for 24 h. The dishes were removed from the incubator, the medium was aspirated and the cells were scraped off using cell scrapers in ice-cold 1× PBS (5 mL/dish, Thermo Fisher Scientific 10010023). The collected cells were centrifuged at 300 g for 5 minutes at 4° C. The supernatant was aspirated and the pellet was frozen at −80° C. until needed. The cell pellet from 30 dishes was dissolved in 30 mL 1× PBS supplemented with 4 tablets of Complete, Mini EDTA-free protease inhibitor cocktail at 4° C. This mixture was sonicated on ice for 10 minutes at 50% amplitude with a 1 second on/1 second off interval using a Model 120 sonicator (Thermo Fisher Scientific, FB120110). The lysate was centrifuged at 16000 g for 10 minutes at 4° C.
To a white 384-well Proxiplate (PerkinElmer, PE-6008280) was added 50 nL/well of a DMSO solution containing test compounds followed by 7.5 mL/well of a 0.067 mg/mL solution of SARM1 cellular lysate in reaction buffer (DPBS containing CHAPSO (0.1%) and fatty acid free BSA (0.032%)). The plate was centrifuged for 1 minute at 1000 RPM and then placed in an incubator at 23° C. for 15 minutes. To the wells were added 2.5 mL/well of a solution containing 40 mM NAD^+ and 4 mM NMN in reaction buffer. The plate was centrifuged for 1 min at 1000 RPM, the plate was sealed and placed in an incubator at 23° C. for 3.5 hours before adding 3.5 mL/well of NAD/NADH-Glo™ solution (preparation as described by Promega using the extended detection protocol). The plate was centrifuged for 1 minute at 1000 RPM and then incubated at 23° C. for 20 minutes. 1 mL/well of a 3.625 mM solution of menadione in DMSO was added and the plate was centrifuged for 1 minute at 1000 RPM. […] Percent inhibition was calculated as follows:
IC50 values were calculated from an 11 point curve using ½ log dilutions using a four-parameter logistic regression curve fit.

In the case of `COc1cncc(-c2cc(NC(=O)N3[C@@H]4C[C@@H](C)C[C@@]3(c3nnc(C)o3)C4)c(F)cc2C(F)(F)F)c1` (single isomer, unassigned) [Example 122, cis-N-(2-fluoro-5-(5-methoxypyridin-3-yl)-4-(trifluoromethyl)phenyl)-3-methyl-1-(5-methyl-1,3,4-oxadiazol-2-yl)-6-azabicyclo[3.1.1]heptane-6-carboxamide], the IC50 was 10.7 µM (Activity (μM)) and above 10 µM (Activity).
With `COc1cncc(-c2cc(NC(=O)N3[C@@H]4C[C@@H](C)C[C@@]3(c3nnc(C)o3)C4)c(F)cc2C(F)(F)F)c1` (single isomer, unassigned) [Example 123, cis-N-(2-fluoro-5-(5-methoxypyridin-3-yl)-4-(trifluoromethyl)phenyl)-3-methyl-1-(5-methyl-1,3,4-oxadiazol-2-yl)-6-azabicyclo[3.1.1]heptane-6-carboxamide], the IC50 by setting is: (Activity (μM)) 0.006 µM; (Activity) 0.0001 to 1 µM.
Taken in the same sequence, the figures for `Cc1nnc([C@]23C[C@H](C)C[C@H](C2)N3C(=O)Nc2cc(-c3cncc(F)c3)c(C)cc2F)o1` (single isomer, unassigned) [Example 124, cis-N-(2-fluoro-5-(5-fluoropyridin-3-yl)-4-methylphenyl)-3-methyl-1-(5-methyl-1,3,4-oxadiazol-2-yl)-6-azabicyclo[3.1.1]heptane-6-carboxamide] were 5.5 µM and 1 to 10 µM.
For `Cc1nnc([C@]23C[C@H](C)C[C@H](C2)N3C(=O)Nc2cc(-c3cncc(F)c3)c(C)cc2F)o1` (single isomer, unassigned) [Example 125, cis-N-(2-fluoro-5-(5-fluoropyridin-3-yl)-4-methylphenyl)-3-methyl-1-(5-methyl-1,3,4-oxadiazol-2-yl)-6-azabicyclo[3.1.1]heptane-6-carboxamide], in that order: 0.025 µM and 0.0001 to 1 µM.
For the compound `Cc1nnc([C@]23C[C@H](C)C[C@H](C2)N3C(=O)Nc2ccc(C)c(-c3cncc(F)c3)c2)o1` (single isomer, unassigned) [Example 127, cis-N-(3-(5-fluoropyridin-3-yl)-4-methylphenyl)-3-methyl-1-(5-methyl-1,3,4-oxadiazol-2-yl)-6-azabicyclo[3.1.1]heptane-6-carboxamide], the IC50 is, setting by setting: (Activity (μM)) 0.01 µM; (Activity) 0.0001 to 1 µM.
Compound `Cc1nnc([C@]23C[C@H](C)C[C@H](C2)N3C(=O)Nc2ccc(C)c(-c3cncc(F)c3)c2)o1` (single isomer, unassigned) [Example 128, cis-N-(3-(5-fluoropyridin-3-yl)-4-methylphenyl)-3-methyl-1-(5-methyl-1,3,4-oxadiazol-2-yl)-6-azabicyclo[3.1.1]heptane-6-carboxamide] returned an IC50 (Activity (μM)) of 11.6 µM and an IC50 (Activity) above 10 µM.
For `Cc1nnc([C@]23C[C@H](C)C[C@H](C2)N3C(=O)Nc2cc(-c3cncc(F)c3)c(Cl)cc2F)o1` (single isomer, unassigned) [Example 132, cis-N-(4-chloro-2-fluoro-5-(5-fluoropyridin-3-yl)phenyl)-3-methyl-1-(5-methyl-1,3,4-oxadiazol-2-yl)-6-azabicyclo[3.1.1]heptane-6-carboxamide], in that order: 0.05 µM and 0.0001 to 1 µM.
`Cc1nnc([C@]23C[C@H](C)C[C@H](C2)N3C(=O)Nc2cc(-c3cncc(F)c3)c(Cl)cc2F)o1` (single isomer, unassigned) [Example 133, cis-N-(4-chloro-2-fluoro-5-(5-fluoropyridin-3-yl)phenyl)-3-methyl-1-(5-methyl-1,3,4-oxadiazol-2-yl)-6-azabicyclo[3.1.1]heptane-6-carboxamide]: the IC50 was 38 µM (Activity (μM)) and above 10 µM (Activity).
